Test results reported in patent US10488417B2, “Compounds for use as imaging agents” (United Arab Emirates University, priority 2014, dated 2019).

Key:
α-synuclein [1] = target: T1, α-synuclein (Homo sapiens, UniProt P37840); experiment: α-synuclein fibrillation, Thioflavin-T (Th-T) binding assay; type: biochemical; conditions: 25 μM α-synuclein; for inhibition at 50 µM: compound 50 μM
T1 construct: GST (N, cleaved yes); made in house; host or cells: E. coli BL21
Description: The protein purity was estimated to be >95% using an SDS gel. Ginsenoside, Rb1, stock solutions (10 mM) were prepared in 100% DMSO, and the final amount of DMSO in the sample solutions was 1%. Samples of 25 μM α-synuclein in PBS were aged alone or with Rb1 at various molar ratios (Rb1:α-synuclein molar ratios of 4:1, 2:1 and 1:1). The samples were placed in 1.5 ml sterile polypropylene tubes, drops of mineral oil were added to prevent sample evaporation, and the tubes were then sealed with parafilm and incubated at 37° C. for 5 days with continuous shaking at 800 rpm in a Thermomixer (Eppendorf). Samples were collected at the indicated time points, and a Thioflavin-T assay was performed immediately at each time point, while the rest of the samples were stored at −80° C. until needed for further analyses.
α-Synuclein fibril formation was monitored by Th-T binding assay. Th-T is a fluorescent dye that interacts with fibrils containing a β-sheet structure. A total of 10 μL of each sample was diluted in 40 μL of Th-T in PBS. Fluorescence was then measured in a 384-well, untreated black micro-well plate (Nunc, Denmark) using a microplate reader (Victor X3 2030, Perkin Elmer) with the excitation and emission wavelengths set at 450 and 486 nm, respectively. To allow for background fluorescence, the fluorescence intensity of a blank PBS solution was subtracted from all readings.
α-Synuclein solution at a concentration of 25 μM was incubated at 37° C. with continuous shaking for 5 days, leading to fibril formation, which was monitored by Th-T fluorescence at regular time intervals. α-Synuclein was incubated with each of Gn Rb1, salvianolic acid B and dihydromyricetin at molar ratios of 4:1, 2:1 and 1:1 (molar ratio Compound: α-synuclein) with a constant α-synuclein concentration of 25 μM.

α-synuclein [2] = target: T1, α-synuclein; experiment: Transmission electron microscopy of α-synuclein aged with compounds; type: biochemical; conditions: 25 μM α-synuclein, 5 days, molar ratios 4:1, 2:1, 1:1
Description: Electron images were produced from α-synuclein aged alone or in the presence of the compounds. The samples (5 μL) were deposited on Formvar-coated 400-mesh copper grids (Agar Scientific, UK), fixed briefly with 0.5% glutaraldehyde (5 μL), negatively stained with 2% uranyl acetate (Sigma-Aldrich, USA) and examined with a Philips CM-10 TEM electron microscope.

α-synuclein [3] = target: T1, α-synuclein; experiment: α-synuclein oligomerization by immunoblot analysis; type: biochemical; conditions: compound: α-syn molar ratios 1:1, 2:1, 4:1; 5 days
Description: Samples of α-synuclein (20 ng) incubated alone or with the compounds were mixed with 1× sample buffer (250 mM Tris-HCl, pH 6.8, 30% glycerol, 0.02% bromophenol blue) and then separated in 15% 1 mm SDS-PAGE gels. The separated proteins were transferred to 0.45 μm nitrocellulose membranes (Whatman Gmbh-Germany) at 90 V for 80 min. The membranes were boiled for 5 min in PBS and then blocked for 1 hour with 5% non-fat milk prepared in PBS-Tween-20 (0.05%; PBST). The membranes were incubated overnight at 4° C. with the primary mouse monoclonal anti-α-syn (211) antibody, which recognizes human α-synuclein (121-125) (Santa Cruz Biotechnology, USA), at a dilution of 1:1000. The membranes were then washed several times with PBST, followed by incubation with an HRP-conjugated goat anti-mouse antibody (Dako Ltd., Ely, UK) at a dilution of 1:70,000 for 60 minutes at room temperature with gentle agitation. The membranes were then extensively washed for 25 min, and immunoreactive bands were visualized with the Super Signal West Femto Chemiluminescent Substrate Kit (Pierce, Rockford, USA) according to the manufacturer's instructions.
The effect of Gn Rb1, salvianolic acid B and dihydromyricetin on α-synuclein oligomerization was assessed by immunoblot analysis. Fresh and aged solutions of α-synuclein alone or in the presence of Gn Rb1, salvianolic acid B or dihydromyricetin were analyzed. Samples were separated in 15% SDS gels, transferred onto a nitrocellulose membrane and probed with an antibody that recognizes the amino acid residues 121-125 of α-synuclein. The majority of freshly prepared α-synuclein migrated as a band at ˜16 KDa, corresponding to α-synuclein monomers (FIGS. 4A-C).
The amount of monomeric α-synuclein in the α-synuclein aged alone samples and in the presence of compounds was quantified against a fresh α-synuclein sample that contained only the monomeric species using ImageJ software.

α-synuclein oligomers = target: T2, α-synuclein oligomers (Homo sapiens, UniProt P37840); experiment: Binding to α-synuclein oligomers: SEC fractions P1-P3 with UV scanning; conditions: compound: α-synuclein 4:1, 100 μM α-synuclein, 5 days
T2 construct: GST (N, cleaved yes); made in house; host or cells: E. coli BL21
Description: SEC was carried out using an AKTA FPLC system (GE Healthcare-Sweden) and a superdex 200 column at 4° C., in order to separate the oligomers generated from the aggregation of α-synuclein with the compounds (compound: α-synuclein molar ratio of 4:1). Monomeric α-synuclein at a concentration of 100 μM was aggregated in the presence of the compounds for 5 days as described above. At the end of the aggregation process, the sample was centrifuged for 45 min at 14,000×g at 4° C. generating a supernatant free from insoluble material. Prior to injecting 80% of the generated supernatant, the column was thoroughly equilibrated with SEC running buffer (1×PBS, pH 7.4) and the flow rate was set to 0.1 ml/min (0.5 ml/fraction). The elution of α-synuclein was monitored at absorbance wavelengths of 215 nm, 254 nm, and 280 nm. To determine the elution time of monomeric α-syn, molecular weight standards (ferritin 440 kDa, aldolase 171 kDa, abmumin 68 kDa and chymotrypsinogenA 25 kDa) and monomeric α-synuclein were co-injected into the column and eluted at the same conditions mentioned above.
For the experiments with salvianolic acid B and dihydromyricetin the fractions eluting between 7-8 ml CV were combined and labeled as oligomers (sample P1), and fractions eluting between 12-14 ml CV were combined and labeled as oligomers (sample P2), whereas the fractions eluting in the 14-16 ml CV were combined and labeled as monomers (sample P3). […]
The P1, P2 and P3 samples, representing the oligomeric and monomeric fractions of SEC, were concentrated using a speed vac (CentriVap, Labconco). […] The UV absorbance spectrum was recorded from 200-600 nm in a spectrophotometer (DU-800, Beckman-Coulter) using 10 mm quartz cuvettes (Hellma Analytics-Germany) and employing equal concentrations of the P1, P2 and P3. […]

[4] = after 5 days of incubation, read-out: inhibition of α-synuclein fibrillation (Th-T fluorescence)

inhibition at 25 µM (α-synuclein [1]; compound 25 μM, after 5 days of incubation, read-out: inhibition of α-synuclein fibrillation (Th-T fluorescence)) [%] | inhibition at 50 µM (α-synuclein [1]; [4]) [%] | inhibition of α-synuclein fibrillation (Th-T fluorescence) (α-synuclein [1]; compound 100 μM, after 5 days of incubation) | SEC samples in which compound was detected by UV absorbance (P1, P2 oligomers; P3 monomers) (α-synuclein oligomers) | inhibition of α-synuclein fibrillation (Th-T fluorescence) (α-synuclein [1]; compound 25 μM, after 5 days of incubation) | inhibition at 100 µM (α-synuclein [1]; compound 100 μM, after 5 days of incubation, read-out: inhibition of α-synuclein fibrillation (Th-T fluorescence)) [%] | Compound | TEM appearance of α-synuclein aged in the presence of compound (α-synuclein [2]) | effect on α-synuclein oligomerization (immunoblot, densitometry) (α-synuclein [3]) | inhibition percentage of α-synuclein fibrillation (Th-T fluorescence) (α-synuclein [1]; 2 days of incubation, 37° C., all tested concentrations) | reduction of α-synuclein fibrillation (Th-T fluorescence) (α-synuclein [1]; after 5 days of incubation, all tested concentrations)
~35 | ~80 | completely abolished | detected in the P2 sample |  |  | O=C(/C=C/c1ccc(O)c2c1[C@H](C(=O)O[C@H](Cc1ccc(O)c(O)c1)C(=O)O)[C@@H](c1ccc(O)c(O)c1)O2)O[C@H](Cc1ccc(O)c(O)c1)C(=O)O [salvianolic acid B] | thin, short rod-like fibrils, with a fragmented appearance | inhibited α-synuclein oligomerization in a dose-dependent fashion |  | 
 | 40 |  | detected in both P2 and P3 | failed to inhibit fibrillation | 80 | O=C1c2c(O)cc(O)cc2O[C@H](c2cc(O)c(O)c(O)c2)[C@H]1O [dihydromyricetin] | thin, short rod-like fibrils, with a fragmented appearance | inhibited α-synuclein oligomerization in a dose-dependent fashion |  | 

Compound | inhibition at 25 µM (α-synuclein [1]; compound 25 μM, after 5 days of incubation, read-out: inhibition of α-synuclein fibrillation (Th-T fluorescence)) [%] | inhibition at 50 µM (α-synuclein [1]; [4]) [%] | inhibition of α-synuclein fibrillation (Th-T fluorescence) (α-synuclein [1]; compound 100 μM, after 5 days of incubation) | SEC samples in which compound was detected by UV absorbance (P1, P2 oligomers; P3 monomers) (α-synuclein oligomers) | inhibition of α-synuclein fibrillation (Th-T fluorescence) (α-synuclein [1]; compound 25 μM, after 5 days of incubation) | inhibition at 100 µM (α-synuclein [1]; compound 100 μM, after 5 days of incubation, read-out: inhibition of α-synuclein fibrillation (Th-T fluorescence)) [%] | TEM appearance of α-synuclein aged in the presence of compound (α-synuclein [2]) | effect on α-synuclein oligomerization (immunoblot, densitometry) (α-synuclein [3]) | inhibition percentage of α-synuclein fibrillation (Th-T fluorescence) (α-synuclein [1]; 2 days of incubation, 37° C., all tested concentrations) | reduction of α-synuclein fibrillation (Th-T fluorescence) (α-synuclein [1]; after 5 days of incubation, all tested concentrations)
CC(C)=CCC[C@](C)(O[C@@H]1O[C@H](CO[C@@H]2O[C@H](CO)[C@@H](O)[C@H](O)[C@H]2O)[C@@H](O)[C@H](O)[C@H]1O)[C@H]1CC[C@]2(C)[C@@H]1[C@H](O)C[C@@H]1[C@@]3(C)CC[C@H](O[C@@H]4O[C@H](CO)[C@@H](O)[C@H](O)[C@H]4O[C@@H]4O[C@H](CO)[C@@H](O)[C@H](O)[C@H]4O)C(C)(C)[C@@H]3CC[C@]12C [Gn Rb1, ginsenoside Rb1] |  |  |  | detected only in the oligomeric P2 samples |  |  | thin, short rod-like fibrils, with a fragmented appearance | potent inhibitor of α-synuclein oligomerization at all molar ratios | approximately 90% | approximately 80%
